Numbered stars: 1 amine (or outer) side, 2 acyl side, 3 side chain; on linkers, the order of the positions; unused ones are H or OH. Bridge positions count the residues as written; N and C are the ends. Square brackets hold non-standard residues; d marks the D form. Peptide text beside a SMILES is read from it. * marks the point of attachment. hPhe(3,5-F2-4-CF3) = N[C@@H](CCc1cc(F)c(C(F)(F)F)c(F)c1)C(=O)O; hPhe(3-Cl-4-CF3) = N[C@@H](CCc1ccc(C(F)(F)F)c(Cl)c1)C(=O)O; NMePhe(4-CF3) = CN[C@@H](Cc1ccc(C(F)(F)F)cc1)C(=O)O; Thiomorpholino(1,1-dioxo) = O=S1(=O)CCN(*)CC1; X51 = CN([C@@](C)(Cc1ccccc1)C(=O)[*:2])[*:1]; NMePhe(4-Me) = CN[C@@H](Cc1ccc(C)cc1)C(=O)O; NMedβ3hAla = C[C@H](CC(=O)[*:2])N(C)[*:1]; NMeAla(cPent) = CN[C@@H](CC1CCCC1)C(=O)O; NMeGly(cPent) = CN[C@H](C(=O)O)C1CCCC1; Phe(3-I) = N[C@@H](Cc1cccc(I)c1)C(=O)O; Pro(4,4-F2) = O=C(O)[C@@H]1CC(F)(F)CN1; NMeAla(cPr) = CN[C@@H](CC1CC1)C(=O)O; NMeY = CN[C@@H](Cc1ccc(O)cc1)C(=O)O; NMeCha = CN[C@@H](CC1CCCCC1)C(=O)O; NMeGly(cPr) = CN[C@H](C(=O)O)C1CC1; NMehLeu = CN[C@@H](CCC(C)C)C(=O)O; NMeCba = CN[C@@H](CC1CCC1)C(=O)O; NMeChg = CN[C@H](C(=O)O)C1CCCCC1; NMeI = CC[C@H](C)[C@H](NC)C(=O)O; hPhe = N[C@@H](CCc1ccccc1)C(=O)O; NMeD = CN[C@@H](CC(=O)O)C(=O)O; NMeL = CN[C@@H](CC(C)C)C(=O)O; Cba = N[C@@H](CC1CCC1)C(=O)O; NMeV = CN[C@H](C(=O)O)C(C)C; d(β3hA) = C[C@@H](N)CC(=O)O; Morpholide = C1CN(*)CCO1; NMeA = CN[C@@H](C)C(=O)O; NMeAib = CNC(C)(C)C(=O)O; Nle = CCCC[C@H](N)C(=O)O; Piperidide = C1CCN(*)CC1; Pra = C#CC[C@H](N)C(=O)O; dNMeA = CN[C@H](C)C(=O)O; Ac5c = NC1(C(=O)O)CCCC1; Aze = O=C(O)[C@@H]1CCN1; NEtG = CCNCC(=O)O; Sar = CNCC(=O)O
test system: Human pancreatic cancer cell line AsPC-1 (G12D mutation Kras); test: AsPC-1 cell growth inhibition (AsPC-1 CGI); assay type: cell-based; conditions: read-out: AsPC-1 cell growth inhibition, 50% growth inhibitory concentration (IC50 value); 96 hours, CellTiter-Glo, values classified in ranges
Protocol: Test compounds were serially dilated with dimethyl sulfoxide, and 200 nL was then dispensed to a U-bottom 96-well plate using Labcyte Echo. […] The cell suspension was dispensed to a. plate containing a test compound at 100 μL per well and incubated at 37° C. in a 5% carbon dioxide gas incubator. 96 hours later, 80 μL of CellTiter-Glo (Promega) was added to each well and fluorescence was measured.

SMILES	IC50 [nM]
CC[C@H](C)[C@@H]1NC(=O)[C@H](CC(C)C)N(C)C(=O)C[C@@H](C(=O)N2CCCCC2)N(C)C(=O)[C@H](C(C)C)N(C)C(=O)C2(CCCC2)NC(=O)[C@@H](C)NC(=O)[C@H](CCc2ccc(C(F)(F)F)c(Cl)c2)NC(=O)CN(C)C(=O)[C@H](CC2CCCCC2)N(C)C(=O)[C@@H]2CCN2C(=O)[C@H](C)N(C)C1=O [Compound 1314] ([NMeL]I[NMeA][Aze][NMeCha][Sar][hPhe(3-Cl-4-CF3)][dA][Ac5c][NMeV][NMeD]-Piperidide; lactam N-11)	> 500
CC[C@H](C)[C@@H]1NC(=O)[C@H](CC2CCCC2)N(C)C(=O)C[C@@H](C(=O)N(C)C)N(C)C(=O)[C@H]([C@@H](C)CC)N(C)C(=O)C2(CCCC2)NC(=O)[C@@H]2CCCN2C(=O)[C@H](CCc2ccc(C(F)(F)F)c(Cl)c2)NC(=O)CN(C)C(=O)[C@H](Cc2ccc(C)cc2)N(C)C(=O)[C@@H]2CCN2C(=O)[C@H](C)NC1=O [Compound 1141] ([NMeAla(cPent)]IA[Aze][NMePhe(4-Me)][Sar][hPhe(3-Cl-4-CF3)]P[Ac5c][NMeI][NMeD]-NMe2; lactam N-11)	≤ 20
CC[C@H](C)[C@@H]1NC(=O)[C@H](C)N(C)C(=O)C[C@@H](C)N(C)C(=O)[C@H](CC(C)C)NC(=O)C(C)(C)N(C)C(=O)[C@H](CC(C)C)NC(=O)[C@H](CCc2ccc(C(F)(F)F)c(Cl)c2)NC(=O)CN(C)C(=O)[C@H](CC2CCCCC2)N(C)C(=O)[C@@H]2CCN2C(=O)CN(C)C1=O [Compound 1387] (cyclo([Aze][NMeCha][Sar][hPhe(3-Cl-4-CF3)]L[NMeAib]L[NMedβ3hAla][NMeA]I[Sar]))	> 500
CC[C@H](C)[C@@H]1NC(=O)[C@H](CC(C)C)N(C)C(=O)C[C@@H](C(=O)N2CCCCC2)N(C)C(=O)[C@H](CC(C)C)NC(=O)C(C)(C)N(C)C(=O)[C@H](CCc2ccccc2)NC(=O)[C@H](Cc2cccc(I)c2)NC(=O)CN(C)C(=O)[C@H](Cc2ccc(C)cc2)N(C)C(=O)CN(C)C(=O)CN(C)C1=O [Compound 13] ([NMeL]I[Sar][Sar][NMePhe(4-Me)][Sar][Phe(3-I)][hPhe][NMeAib]L[NMeD]-Piperidide; lactam N-11)	> 500
CC[C@H](C)[C@@H]1NC(=O)[C@H](C)N(C)C(=O)C[C@@H](C)NC(=O)[C@H](C(C)C)N(C)C(=O)C(C)(C)N(C)C(=O)[C@@H]2CCCN2C(=O)[C@H](CCc2ccc(C(F)(F)F)c(Cl)c2)NC(=O)CN(C)C(=O)[C@H](CC2CCCCC2)N(C)C(=O)CN(C)C(=O)CN(C)C1=O [Compound 93] (cyclo(I[Sar][Sar][NMeCha][Sar][hPhe(3-Cl-4-CF3)]P[NMeAib][NMeV][d(β3hA)][NMeA]))	> 500
CC[C@H](C)[C@@H]1NC(=O)[C@H](CC(C)C)N(C)C(=O)C[C@@H](C)N(C)C(=O)[C@H](CCC(C)C)N(C)C(=O)C2(CCCC2)NC(=O)[C@@H]2CCCN2C(=O)[C@H](CCc2ccc(C(F)(F)F)c(Cl)c2)NC(=O)CN(C)C(=O)[C@H](CC2CCCCC2)N(C)C(=O)CN(C)C(=O)CN(C)C1=O [Compound 22] (cyclo([Ac5c][NMehLeu][NMedβ3hAla][NMeL]I[Sar][Sar][NMeCha][Sar][hPhe(3-Cl-4-CF3)]P))	> 500
CC[C@H](C)[C@@H]1NC(=O)[C@H](CC(C)C)N(C)C(=O)C[C@@H](C)NC(=O)[C@H](CC2CC2)N(C)C(=O)C2(CCCC2)NC(=O)[C@@H]2CCCN2C(=O)[C@H](CCc2ccc(C(F)(F)F)c(Cl)c2)NC(=O)CN(C)C(=O)[C@H](CC2CCCCC2)N(C)C(=O)CN(C)C(=O)CN(C)C1=O [Compound 707] (cyclo([Ac5c][NMeAla(cPr)][d(β3hA)][NMeL]I[Sar][Sar][NMeCha][Sar][hPhe(3-Cl-4-CF3)]P))	> 500
CC(C)C[C@H]1C(=O)N[C@@H](CC2CCC2)C(=O)N(C)CC(=O)N(C)CC(=O)N(C)[C@@H](CC2CCCCC2)C(=O)N(C)CC(=O)N[C@@H](CCc2ccc(C(F)(F)F)c(Cl)c2)C(=O)N2CCC[C@H]2C(=O)NC2(CCCC2)C(=O)N(C)[C@@H](C(C)C)C(=O)N(C)[C@H](C(=O)N2CCCCC2)CC(=O)N1C [Compound 451] ([NMeL][Cba][Sar][Sar][NMeCha][Sar][hPhe(3-Cl-4-CF3)]P[Ac5c][NMeV][NMeD]-Piperidide; lactam N-11)	> 500
CCCC[C@@H]1NC(=O)[C@H](Cc2cccc(I)c2)NC(=O)CN(C)C(=O)[C@H](Cc2ccc(OC)cc2)N(C)C(=O)CN(C)C(=O)CN(C)C(=O)[C@H]([C@@H](C)CC)NC(=O)[C@H](CC(C)C)N(C)C(=O)C[C@@H](C(=O)N2CCCCC2)N(C)C(=O)[C@H](CC(C)C)NC(=O)[C@](C)(Cc2ccccc2)N(C)C1=O [Compound 125] ([NMeL]I[Sar][Sar][NMeY](Me)[Sar][Phe(3-I)][Nle][X51]L[NMeD]-Piperidide; lactam N-11)	> 500
CC[C@H](C)[C@@H]1NC(=O)[C@H](CC(C)C)N(C)C(=O)C[C@@H](C)NC(=O)[C@H](C(C)C)N(C)C(=O)C2(CCCC2)NC(=O)[C@@H]2CCCN2C(=O)[C@H](CCc2ccc(C(F)(F)F)c(Cl)c2)NC(=O)CN(C)C(=O)[C@H](CC2CCCCC2)N(C)C(=O)CN(C)C(=O)CN(CC)C1=O [Compound 210] (cyclo([Ac5c][NMeV][d(β3hA)][NMeL]I[NEtG][Sar][NMeCha][Sar][hPhe(3-Cl-4-CF3)]P))	> 500
CC[C@H](C)[C@@H]1NC(=O)[C@H](CC(C)C)N(C)C(=O)C[C@@H](C)N(C)C(=O)[C@H](CC2CCC2)N(C)C(=O)C2(CCCC2)NC(=O)[C@@H]2CCCN2C(=O)[C@H](CCc2ccc(C(F)(F)F)c(Cl)c2)NC(=O)CN(C)C(=O)[C@H](CC2CCCCC2)N(C)C(=O)CN(C)C(=O)CN(C)C1=O [Compound 723] (cyclo([Ac5c][NMeCba][NMedβ3hAla][NMeL]I[Sar][Sar][NMeCha][Sar][hPhe(3-Cl-4-CF3)]P))	> 500
CC[C@H](C)[C@@H]1NC(=O)[C@H](CC(C)C)N(C)C(=O)C[C@@H](C(=O)N2CCS(=O)(=O)CC2)NC(=O)[C@H]([C@@H](C)CC)N(C)C(=O)C2(CCCC2)NC(=O)[C@@H]2CCCN2C(=O)[C@H](CCc2ccc(C(F)(F)F)c(Cl)c2)NC(=O)CN(C)C(=O)[C@H](CC2CCCCC2)N(C)C(=O)CN(C)C(=O)CN(C)C1=O [Compound 1279] ([NMeL]I[Sar][Sar][NMeCha][Sar][hPhe(3-Cl-4-CF3)]P[Ac5c][NMeI]D-{Thiomorpholino(1,1-dioxo)}; lactam N-11)	> 500
CC[C@H](C)[C@@H]1NC(=O)[C@H](C2CC2)N(C)C(=O)C[C@@H](C)NC(=O)[C@H](C(C)C)N(C)C(=O)C2(CCCC2)NC(=O)[C@@H]2CCCN2C(=O)[C@H](CCc2ccc(C(F)(F)F)c(Cl)c2)NC(=O)CN(C)C(=O)[C@H](CC2CCCCC2)N(C)C(=O)CN(C)C(=O)CN(C)C1=O [Compound 844] (cyclo([Ac5c][NMeV][d(β3hA)][NMeGly(cPr)]I[Sar][Sar][NMeCha][Sar][hPhe(3-Cl-4-CF3)]P))	> 500
CC[C@H](C)[C@@H]1NC(=O)[C@H](CC(C)C)N(C)C(=O)C[C@@H](C(=O)N2CCCCC2)N(C)C(=O)[C@H](C(C)C)N(C)C(=O)C2(CCCC2)NC(=O)[C@@H]2CCCN2C(=O)[C@H](CCc2ccccc2)NC(=O)CN(C)C(=O)[C@H](CC2CCCCC2)N(C)C(=O)CN(C)C(=O)CN(C)C1=O [Compound 265] ([NMeL]I[Sar][Sar][NMeCha][Sar][hPhe]P[Ac5c][NMeV][NMeD]-Piperidide; lactam N-11)	> 500
C#CC[C@@H]1NC(=O)[C@H](Cc2cccc(I)c2)NC(=O)CN(C)C(=O)[C@H](Cc2ccc(C(F)(F)F)cc2)N(C)C(=O)CN(C)C(=O)CN(C)C(=O)[C@H]([C@@H](C)CC)NC(=O)[C@H](CC(C)C)N(C)C(=O)C[C@@H](C(=O)N2CCCCC2)N(C)C(=O)[C@H](CC(C)C)NC(=O)C(C)(C)N(C)C1=O [Compound 1361] ([NMeL]I[Sar][Sar][NMePhe(4-CF3)][Sar][Phe(3-I)][Pra][NMeAib]L[NMeD]-Piperidide; lactam N-11)	> 500
CC[C@H](C)[C@@H]1NC(=O)[C@H](CC(C)C)N(C)C(=O)C[C@@H](C(=O)N2CCCCC2)N(C)C(=O)[C@H](C(C)C)N(C)C(=O)C2(CCCC2)NC(=O)[C@H](C)N(C)C(=O)[C@H](CCc2ccc(C(F)(F)F)c(Cl)c2)NC(=O)CN(C)C(=O)[C@H](CC2CCCCC2)N(C)C(=O)[C@@H]2CCN2C(=O)[C@H](C)N(C)C1=O [Compound 1243] ([NMeL]I[NMeA][Aze][NMeCha][Sar][hPhe(3-Cl-4-CF3)][NMeA][Ac5c][NMeV][NMeD]-Piperidide; lactam N-11)	> 500
CC[C@H](C)[C@@H]1NC(=O)[C@H](CC(C)C)N(C)C(=O)C[C@@H](C(=O)N(C)C)N(C)C(=O)[C@H](C2CCCC2)N(C)C(=O)[C@H](C(C)C)NC(=O)[C@@H](C)NC(=O)[C@H](CCc2ccc(C(F)(F)F)c(Cl)c2)NC(=O)CN(C)C(=O)[C@H](CC2CCCCC2)N(C)C(=O)[C@@H]2CCN2C(=O)[C@H](C)N(C)C1=O [Compound 24] ([NMeL]I[NMeA][Aze][NMeCha][Sar][hPhe(3-Cl-4-CF3)][dA]V[NMeGly(cPent)][NMeD]-NMe2; lactam N-11)	> 500
CC[C@H](C)[C@@H]1NC(=O)[C@H](CC(C)C)N(C)C(=O)C[C@@H](C(=O)N2CCOCC2)N(C)C(=O)[C@H](C2CCCCC2)N(C)C(=O)C2(CCCC2)NC(=O)[C@@H]2CC(F)(F)CN2C(=O)[C@H](CCc2cc(F)c(C(F)(F)F)c(F)c2)NC(=O)CN(C)C(=O)[C@H](CC2CCCCC2)N(C)C(=O)CN(C)C(=O)CN(C)C1=O [Compound 1337] ([NMeL]I[Sar][Sar][NMeCha][Sar][hPhe(3,5-F2-4-CF3)][Pro(4,4-F2)][Ac5c][NMeChg][NMeD]-Morpholide; lactam N-11)	≤ 20
CC[C@H](C)[C@@H]1NC(=O)[C@H](C)N(C)C(=O)C[C@@H](C)NC(=O)[C@H](C2CCCC2)N(C)C(=O)C2(CCCC2)NC(=O)[C@@H]2CCCN2C(=O)[C@H](CCc2ccc(C(F)(F)F)c(Cl)c2)NC(=O)[C@@H](C)N(C)C(=O)[C@H](CC2CCCCC2)N(C)C(=O)CN(C)C(=O)CN(C)C1=O [Compound 1535] (cyclo([Ac5c][NMeGly(cPent)][d(β3hA)][NMeA]I[Sar][Sar][NMeCha][dNMeA][hPhe(3-Cl-4-CF3)]P))	> 500
